Measured values as given in the NIST ThermoML archive (doi:10.1016/j.fluid.2007.06.007).
± gives the expanded uncertainty stated by the source.

Test: excess molar enthalpy (molar enthalpy of mixing); xn = mol fraction of the nth substance listed
Details: 101 kPa, Liquid, Calvet calorimetry

CCCCCCC [heptane] + CCO
298.15 K
Details	excess molar enthalpy [kcal/mol]
x1 = 0.00013	0.0001 ± 0.00022
x1 = 0.000261	0.000201 ± 0.000222
x1 = 0.000392	0.000304 ± 0.000222
x1 = 0.000524	0.000402 ± 0.000222
x1 = 0.000655	0.00049 ± 0.000225
x1 = 0.000787	0.000588 ± 0.000225
x1 = 0.000919	0.000679 ± 0.000225
x1 = 0.001051	0.000767 ± 0.000225
x1 = 0.001183	0.000865 ± 0.000227
x1 = 0.001314	0.000954 ± 0.000227
x1 = 0.001445	0.00105 ± 0.000227
x1 = 0.001577	0.00114 ± 0.000227
x2 = 0.000794	0.00457 ± 0.000263
x2 = 0.001594	0.0088 ± 0.00043
x2 = 0.002391	0.0129 ± 0.000574
x2 = 0.003191	0.0168 ± 0.000741
x2 = 0.003992	0.0205 ± 0.000884
x2 = 0.00479	0.0239 ± 0.001
x2 = 0.005589	0.027 ± 0.00115
x2 = 0.006387	0.0299 ± 0.00127
x2 = 0.007185	0.0325 ± 0.00136
x2 = 0.007976	0.0349 ± 0.00146
x2 = 0.008768	0.0371 ± 0.00155
x2 = 0.009558	0.0391 ± 0.00163

CCCCn1cc[n+](C)c1.F[P-](F)(F)(F)(F)F [1-butyl-3-methylimidazolium hexafluorophosphate] + CCCO
Details	excess molar enthalpy [kcal/mol]
288.15 K, x2 = 0.000953	0.00219 ± 0.000237
288.15 K, x2 = 0.001891	0.00413 ± 0.000287
288.15 K, x2 = 0.002836	0.00617 ± 0.000335
288.15 K, x2 = 0.003785	0.00824 ± 0.00043
288.15 K, x2 = 0.004734	0.0102 ± 0.000502
288.15 K, x2 = 0.005679	0.0123 ± 0.000574
288.15 K, x2 = 0.006625	0.0142 ± 0.000645
288.15 K, x2 = 0.007571	0.0162 ± 0.000717
298.15 K, x2 = 0.000901	0.0021 ± 0.000234
298.15 K, x2 = 0.001808	0.00414 ± 0.000287
298.15 K, x2 = 0.002711	0.00615 ± 0.000335
298.15 K, x2 = 0.003619	0.00808 ± 0.000406
298.15 K, x2 = 0.004527	0.00997 ± 0.000478
298.15 K, x2 = 0.005431	0.0118 ± 0.00055
298.15 K, x2 = 0.006336	0.0136 ± 0.000621
298.15 K, x2 = 0.007241	0.0155 ± 0.000693
308.15 K, x2 = 0.000957	0.00225 ± 0.000237
308.15 K, x2 = 0.001911	0.00429 ± 0.000287
308.15 K, x2 = 0.002864	0.00631 ± 0.000359
308.15 K, x2 = 0.003815	0.00832 ± 0.00043
308.15 K, x2 = 0.004765	0.0103 ± 0.000502
308.15 K, x2 = 0.005712	0.0123 ± 0.000574
308.15 K, x2 = 0.006658	0.0142 ± 0.000645
308.15 K, x2 = 0.007602	0.0162 ± 0.000717
318.15 K, x2 = 0.001129	0.00278 ± 0.000239
318.15 K, x2 = 0.002265	0.00556 ± 0.000335
318.15 K, x2 = 0.003396	0.00829 ± 0.00043
318.15 K, x2 = 0.004532	0.0109 ± 0.000526
318.15 K, x2 = 0.005668	0.0136 ± 0.000621
318.15 K, x2 = 0.006798	0.0163 ± 0.000717
318.15 K, x2 = 0.007929	0.019 ± 0.000837
318.15 K, x2 = 0.009059	0.0215 ± 0.000932

CCCCn1cc[n+](C)c1.F[P-](F)(F)(F)(F)F [1-butyl-3-methylimidazolium hexafluorophosphate] + CCO
Details	excess molar enthalpy [kcal/mol]
288.15 K, x2 = 0.001144	0.00208 ± 0.000234
288.15 K, x2 = 0.002285	0.00415 ± 0.000287
288.15 K, x2 = 0.003423	0.00629 ± 0.000359
288.15 K, x2 = 0.004559	0.00822 ± 0.00043
288.15 K, x2 = 0.005692	0.0104 ± 0.000502
288.15 K, x2 = 0.006823	0.0126 ± 0.000574
288.15 K, x2 = 0.007951	0.0147 ± 0.000669
288.15 K, x2 = 0.009076	0.0168 ± 0.000741
298.15 K, x2 = 0.001112	0.00206 ± 0.000234
298.15 K, x2 = 0.002231	0.00395 ± 0.000287
298.15 K, x2 = 0.003346	0.00578 ± 0.000335
298.15 K, x2 = 0.004465	0.00775 ± 0.000406
298.15 K, x2 = 0.005584	0.00937 ± 0.000454
298.15 K, x2 = 0.006698	0.0112 ± 0.000526
298.15 K, x2 = 0.007812	0.0132 ± 0.000598
298.15 K, x2 = 0.008925	0.015 ± 0.000669
308.15 K, x2 = 0.00114	0.00243 ± 0.000239
308.15 K, x2 = 0.002261	0.00429 ± 0.000287
308.15 K, x2 = 0.00339	0.00632 ± 0.000359
308.15 K, x2 = 0.004524	0.00838 ± 0.00043
308.15 K, x2 = 0.005658	0.0101 ± 0.000478
308.15 K, x2 = 0.006787	0.0119 ± 0.00055
308.15 K, x2 = 0.007915	0.0139 ± 0.000621
308.15 K, x2 = 0.009044	0.0158 ± 0.000693
318.15 K, x2 = 0.001144	0.00253 ± 0.000239
318.15 K, x2 = 0.002294	0.00499 ± 0.000311
318.15 K, x2 = 0.00344	0.00687 ± 0.000359
318.15 K, x2 = 0.004591	0.00876 ± 0.00043
318.15 K, x2 = 0.005741	0.011 ± 0.000526
318.15 K, x2 = 0.006886	0.0133 ± 0.000598
318.15 K, x2 = 0.008031	0.0153 ± 0.000693
318.15 K, x2 = 0.009176	0.0174 ± 0.000765
